Laboratory results from ChEMBL document CHEMBL1201862, “PubChem BioAssay data set” (2004).
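Exposure lasted 48 hours, with cells grown in 96-well plates and compounds tested at five concentrations. The concentration for 50% growth inhibition is given as GI50.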 Activity calls are given as the source filed them. Cut-off read from the data, not from the text of the source: active = GI50 up to about 1.1 µM and inactive = higher.

Legend:
Assay in all cases: NCI-60 cell line screen, 48 h
UACC-62 = tested on: UACC-62
OVCAR-3 = tested on: OVCAR-3
NCI-H460 = tested on: NCI-H460
NCI-H522 = tested on: NCI-H522
RXF 393 = tested on: RXF 393
SK-OV-3 = tested on: SK-OV-3
COLO 205 = tested on: COLO 205
HCT-116 = tested on: HCT-116
CCRF-CEM = tested on: CCRF-CEM
SK-MEL-2 = tested on: SK-MEL-2
SN12C = tested on: SN12C
UO-31 = tested on: UO-31
KM12 = tested on: KM12
EKVX = tested on: EKVX
NCI-H226 = tested on: NCI-H226

Row | Compound | GI50 (UACC-62) | GI50 (OVCAR-3) | GI50 (NCI-H460) | GI50 (NCI-H522) | GI50 (RXF 393) | GI50 (SK-OV-3) | GI50 (COLO 205) | GI50 (HCT-116) | GI50 (CCRF-CEM) | GI50 (SK-MEL-2) | GI50 (SN12C) | GI50 (UO-31) | GI50 (KM12) | GI50 (EKVX) | GI50 (NCI-H226)
1 | c1ccc(SC(CCCCOC2CCCCO2)Sc2ccccc2)cc1 (configuration not stated) | > 100 µM (inactive) | 56.5 µM (inactive) | 99.1 µM (inactive) | 18.4 µM (inactive) | 38.8 µM (inactive) | > 100 µM (inactive) | 94.6 µM (inactive) | 47.5 µM (inactive) | 29.2 µM (inactive) | 22.6 µM (inactive) | > 100 µM (inactive) | 13.4 µM (inactive) | > 100 µM (inactive) | > 100 µM (inactive) | –
2 | Cc1cc2c(C)n(Cc3ccccc3Cl)nc2c(C(=O)O)c1C | > 100 µM (inactive) | > 100 µM (inactive) | > 100 µM (inactive) | – | > 100 µM (inactive) | > 100 µM (inactive) | > 10 µM (inactive) | > 100 µM (inactive) | > 100 µM (inactive) | > 100 µM (inactive) | > 100 µM (inactive) | > 100 µM (inactive) | – | > 100 µM (inactive) | > 100 µM (inactive)
3 | CC(C)C(=S)N(C)O | 10.1 µM (inactive) | 2.82 µM (inactive) | 5.69 µM (inactive) | 6.08 µM (inactive) | 98.9 µM (inactive) | 55.3 µM (inactive) | 0.35 µM (active) | 2.29 µM (inactive) | 0.502 µM (active) | 24.5 µM (inactive) | 26.6 µM (inactive) | 9.64 µM (inactive) | 17.7 µM (inactive) | 23.1 µM (inactive) | 44 µM (inactive)
4 | COC(=O)CC1NC(=O)C1C(C)(OC)OC (configuration not stated) | > 100 µM (inactive) | > 100 µM (inactive) | > 100 µM (inactive) | – | > 100 µM (inactive) | – | > 100 µM (inactive) | > 100 µM (inactive) | > 100 µM (inactive) | > 100 µM (inactive) | > 100 µM (inactive) | > 100 µM (inactive) | – | > 100 µM (inactive) | > 100 µM (inactive)
5 | CC(=O)OC1COC(Nc2ccc(C(C)=O)cc2)C(OC(C)=O)C1OC(C)=O (configuration not stated) | > 100 µM (inactive) | > 100 µM (inactive) | > 100 µM (inactive) | > 100 µM (inactive) | > 100 µM (inactive) | > 100 µM (inactive) | > 100 µM (inactive) | – | > 100 µM (inactive) | > 100 µM (inactive) | > 100 µM (inactive) | > 100 µM (inactive) | > 100 µM (inactive) | > 100 µM (inactive) | > 100 µM (inactive)
6 | O=C(NC(=O)c1cn(CCN2CCN(C(=O)NCCCCCCNC(=O)N3CCN(CCn4cc(C(=O)NC(=O)OCc5ccccc5)c(=O)[nH]c4=O)CC3)CC2)c(=O)[nH]c1=O)OCc1ccccc1 | > 100 µM (inactive) | > 100 µM (inactive) | > 100 µM (inactive) | – | > 100 µM (inactive) | > 100 µM (inactive) | > 100 µM (inactive) | > 100 µM (inactive) | > 100 µM (inactive) | – | > 100 µM (inactive) | > 100 µM (inactive) | – | > 100 µM (inactive) | –
7 | COc1ccc2c3c([nH]c2c1[N+](=O)[O-])C(C)N(Cc1ccc([N+](=O)[O-])cc1)CC3 (configuration not stated) | 15.8 µM (inactive) | 14 µM (inactive) | 11.8 µM (inactive) | 3.96 µM (inactive) | 10.9 µM (inactive) | – | 14 µM (inactive) | – | 6.76 µM (inactive) | 14.5 µM (inactive) | 18.5 µM (inactive) | 13.2 µM (inactive) | 14.2 µM (inactive) | 37.6 µM (inactive) | 18.1 µM (inactive)
8 | CCOC(=O)NC(=O)c1cn(CCCCCCCCCCC(=O)N2CCN(CCn3cc(C(=O)NC(=O)OCC)c(=O)[nH]c3=O)CC2)c(=O)[nH]c1=O | > 100 µM (inactive) | > 100 µM (inactive) | > 100 µM (inactive) | – | > 100 µM (inactive) | > 100 µM (inactive) | > 100 µM (inactive) | > 100 µM (inactive) | > 100 µM (inactive) | – | > 100 µM (inactive) | – | – | > 100 µM (inactive) | –
9 | COC1OC2COC(c3ccccc3)OC2C(O)C1Br (configuration not stated) | > 100 µM (inactive) | > 100 µM (inactive) | > 100 µM (inactive) | > 100 µM (inactive) | > 100 µM (inactive) | – | > 100 µM (inactive) | > 100 µM (inactive) | > 100 µM (inactive) | – | > 100 µM (inactive) | – | > 100 µM (inactive) | – | –
10 | CC(C)N1CCC2(CC1)NNc1ncccc1-n1cccc12 | – | > 100 µM (inactive) | > 100 µM (inactive) | > 100 µM (inactive) | – | – | > 100 µM (inactive) | > 100 µM (inactive) | > 100 µM (inactive) | > 100 µM (inactive) | > 100 µM (inactive) | > 100 µM (inactive) | > 100 µM (inactive) | > 100 µM (inactive) | > 100 µM (inactive)
11 | O=C1c2ccccc2C(=O)N1C/C=C/CO | > 100 µM (inactive) | > 100 µM (inactive) | > 100 µM (inactive) | 98.2 µM (inactive) | > 100 µM (inactive) | > 100 µM (inactive) | > 100 µM (inactive) | > 100 µM (inactive) | > 100 µM (inactive) | > 100 µM (inactive) | > 100 µM (inactive) | > 100 µM (inactive) | > 100 µM (inactive) | – | > 100 µM (inactive)
12 | CCOC(=O)CNC(=O)OCc1ccccc1 | > 100 µM (inactive) | > 100 µM (inactive) | > 100 µM (inactive) | > 100 µM (inactive) | – | > 100 µM (inactive) | > 100 µM (inactive) | > 100 µM (inactive) | > 100 µM (inactive) | > 100 µM (inactive) | > 100 µM (inactive) | > 100 µM (inactive) | > 100 µM (inactive) | – | –
13 | Cc1ccccc1-c1cc(=O)c2cc(C)c(C)c(C(=O)O)c2o1 | > 100 µM (inactive) | > 100 µM (inactive) | > 100 µM (inactive) | > 100 µM (inactive) | – | > 100 µM (inactive) | > 100 µM (inactive) | > 100 µM (inactive) | > 100 µM (inactive) | > 100 µM (inactive) | > 100 µM (inactive) | > 100 µM (inactive) | > 100 µM (inactive) | > 100 µM (inactive) | > 100 µM (inactive)
14 | C1=CC=C2NCCC/N=C3/C=CC=CC=C3NCCC/N=C\2C=C1 | > 100 µM (inactive) | > 100 µM (inactive) | > 100 µM (inactive) | – | – | > 100 µM (inactive) | > 100 µM (inactive) | > 100 µM (inactive) | > 100 µM (inactive) | > 100 µM (inactive) | > 100 µM (inactive) | > 100 µM (inactive) | > 100 µM (inactive) | > 100 µM (inactive) | > 100 µM (inactive)
15 | Cc1cc2c(=O)cc(-c3ccc(Cl)cc3Cl)oc2c(C(=O)O)c1C | > 100 µM (inactive) | > 100 µM (inactive) | > 100 µM (inactive) | 25.3 µM (inactive) | > 100 µM (inactive) | > 100 µM (inactive) | > 100 µM (inactive) | > 100 µM (inactive) | > 100 µM (inactive) | > 100 µM (inactive) | > 100 µM (inactive) | > 100 µM (inactive) | > 100 µM (inactive) | > 100 µM (inactive) | > 100 µM (inactive)
16 | O=C1CC2Sc3ccccc3N=C2N1c1ccc(Cl)cc1Cl (configuration not stated) | 48.3 µM (inactive) | > 100 µM (inactive) | > 100 µM (inactive) | – | 93.5 µM (inactive) | – | > 100 µM (inactive) | 38.2 µM (inactive) | 17.1 µM (inactive) | 46.6 µM (inactive) | 39.9 µM (inactive) | 29.9 µM (inactive) | 49.8 µM (inactive) | > 100 µM (inactive) | > 100 µM (inactive)
17 | CC(=O)Nc1ccc(C(=O)N2N=C(C)/C(=C/c3cccc([N+](=O)[O-])c3)C2=O)cc1 | – | > 100 µM (inactive) | > 100 µM (inactive) | > 100 µM (inactive) | – | – | > 100 µM (inactive) | > 100 µM (inactive) | > 100 µM (inactive) | – | > 100 µM (inactive) | > 100 µM (inactive) | > 100 µM (inactive) | > 100 µM (inactive) | > 100 µM (inactive)
18 | CN1N=C2c3ccccc3CC[C@H]2C1c1cccc(O)c1 (some centres not stated) | > 100 µM (inactive) | > 100 µM (inactive) | 81.1 µM (inactive) | > 100 µM (inactive) | 77.4 µM (inactive) | > 100 µM (inactive) | > 100 µM (inactive) | 3.05 µM (inactive) | > 100 µM (inactive) | > 100 µM (inactive) | > 100 µM (inactive) | 32.4 µM (inactive) | > 100 µM (inactive) | > 100 µM (inactive) | > 100 µM (inactive)
19 | COc1cc2nc(Sc3c([N+](=O)[O-])ncn3C)[nH]c2cc1OC | 24.3 µM (inactive) | 46.8 µM (inactive) | 49.9 µM (inactive) | – | 16.1 µM (inactive) | 79.4 µM (inactive) | 13.6 µM (inactive) | 27.4 µM (inactive) | – | – | 16.3 µM (inactive) | 46 µM (inactive) | 46.7 µM (inactive) | 21.2 µM (inactive) | 28.3 µM (inactive)
20 | CCCCCCCC[N+](C)(C)Cc1ccc(C[N+](C)(C)CCCCCCCC)cc1 | 77.8 µM (inactive) | 29.6 µM (inactive) | 28.6 µM (inactive) | 5.58 µM (inactive) | 78.7 µM (inactive) | 69.7 µM (inactive) | 1.76 µM (inactive) | > 100 µM (inactive) | > 100 µM (inactive) | 14.9 µM (inactive) | 7.33 µM (inactive) | > 100 µM (inactive) | 11.7 µM (inactive) | > 100 µM (inactive) | 34.5 µM (inactive)
21 | O=C(O)CCCNS(=O)(=O)c1ccccc1 | > 100 µM (inactive) | > 100 µM (inactive) | > 100 µM (inactive) | > 100 µM (inactive) | > 100 µM (inactive) | > 100 µM (inactive) | > 100 µM (inactive) | – | > 100 µM (inactive) | > 100 µM (inactive) | > 100 µM (inactive) | > 100 µM (inactive) | > 100 µM (inactive) | > 100 µM (inactive) | > 100 µM (inactive)
